This is an account of results in patent publication US5472979A, “1,2,3,4-tetrahydronaphthalene compounds” (Adir et Compagnie, priority 1993, dated 1995).

Test [1] concerns platelet aggregation of U46619. Description: ex vivo platelet aggregation in dogs after oral administration. Details: species or system dog. How it is done:
The experiments are carried out on non-anesthetized dogs. After applying a tourniquet and introduction of a needle into the cephalic vein, blood is withdrawn onto sodium citrate (0.109M). The blood is stored at the temperature of the room. Platelet aggregation is measured in the total blood using an impedance probe in an aggregometer. The pro-aggregating activity of the thromboxane receptor agonist, U46619, is tested in the presence of adrenalin (10 μM). The products of the invention and the reference substances are administered to dogs orally after performing the control test. Blood samples are subsequently withdrawn at determined times: t=30 min, 1 h, 2 h, 4 h, 6 h, 24 h, 48 h, etc. until the aggregation activity of U46619 has fully returned.

For test [2], the system named is platelet aggregation induced by the TXA2 agonist, U46619. Description: Platelet aggregation in rabbits (PRP, U46619-induced). It counts as cell-based. To be noted: Oryctolagus cuniculus, rabbit PRP, 37° C., antagonist 3 min before U46619, read-out: IC50 Rabbit (inhibition of U46619-induced platelet aggregation). How it is done: Rabbits (2-3 kg) are anesthetized with pentobarbital sodium (30 mg/kg i.v.). After cannulation of the left carotid artery, blood is withdrawn onto sodium citrate (0.109M) (1 vol. of citrate per 9 vol. of blood).
Platelet-rich plasma (PRP) is obtained by centrifugation (20° C.) at 250 g for 20 minutes, and platelet-poor plasma (PPP) by centrifugation at 1000 g (10 min). The number of platelets (PL) in the PRP is adjusted to between 300-350,000 PL/mm^3 by dilution with autologous PPP. The PRP is stored at the temperature of the room until the time of the test, and is used within 4 hours following withdrawal.
Platelet aggregation is carried out at 37° C. in siliconed glass tubes using an aggregometer. The PRP and PLs are stirred at 1000 rpm (revolutions per minute). In order to study the activity of thromboxane antagonists, the PRP is incubated for 1 min at 37° C., and the antagonist is then added for a period of 3 min before addition of the agonist U46619 […]. The final volume in the cell is then […]. The intensity of platelet aggregation is established by taking the maximum amplitude of the aggregation plots and is expressed as a percentage light transmission (% T).

For test [3] the test system is unchanged. Briefly: Platelet aggregation in man (PRP, U46619-induced). To be noted: human PRP, procedure of Example 19, U46619 0.3 mM, read-out: IC50 (inhibition of U46619-induced platelet aggregation). It counts as cell-based. How it is done:
Dog platelets respond weakly to U46619 alone. […] The PRP is incubated at 37° C. in the presence of the antagonist to be tested for 3 minutes. Aggregation is subsequently obtained by the addition of adrenalin (10μM) followed by that of U46619 […] 30 seconds later.
Venous blood is obtained from human volunteers who have taken no aspirin for at least 14 days preceding the experiment. Blood is withdrawn onto sodium citrate (0.109M) (1 vol. of citrate per 9 vol. of blood). Platelet-rich plasma (PRP) is obtained after centrifugation (20° C.) at 200 g for 10 minutes. The number of platelets is, on average, 250,000 PL/mm^3. The PRP is stored at the temperature of the room until the time of the test, and is used within 2 hours following withdrawal. The antagonists are tested according to the procedure described in Example 19, using U46619 at the concentration of […].

The test system is the same in test [4]. Description: Platelet aggregation in dogs (PRP, adrenalin + U46619-induced). It counts as cell-based. The conditions noted are these: Canis lupus familiaris, 0.05 h, dog PRP, 37° C., 3 min, adrenalin (10 μM) then U46619, read-out: IC50 Dog (inhibition of aggregation to U46619 + adrenalin). How it is done: After anesthetizing the animal with pentobarbital sodium (30 mg/kg i.v.), arterial blood is withdrawn onto sodium citrate (0.109M) (1 vol. of citrate per 9 vol. of blood). The platelet-rich plasma (PRP) is obtained after centrifugation (20° C.) at 200 g for 10 minutes. The number of platelets in the PRP is, on average, 300,000 PL/mm^3 The PRP is stored at the temperature of the room until the time of the test, and is used within 4 hours following withdrawal.
The PRP is incubated at 37° C. in the presence of the antagonist to be tested for 3 minutes. Aggregation is subsequently obtained by the addition of adrenalin (10μM) followed by that of U46619 […] 30 seconds later.

For another test, the target named is T1, platelet TXA2 receptors (Homo sapiens, UniProt P21731).
T1 construct: platelet membranes, prepared from washed, ground and centrifuged human platelets; from tissue; host or cells: human platelets (membranes)
T1 sequence (P21731 1-343): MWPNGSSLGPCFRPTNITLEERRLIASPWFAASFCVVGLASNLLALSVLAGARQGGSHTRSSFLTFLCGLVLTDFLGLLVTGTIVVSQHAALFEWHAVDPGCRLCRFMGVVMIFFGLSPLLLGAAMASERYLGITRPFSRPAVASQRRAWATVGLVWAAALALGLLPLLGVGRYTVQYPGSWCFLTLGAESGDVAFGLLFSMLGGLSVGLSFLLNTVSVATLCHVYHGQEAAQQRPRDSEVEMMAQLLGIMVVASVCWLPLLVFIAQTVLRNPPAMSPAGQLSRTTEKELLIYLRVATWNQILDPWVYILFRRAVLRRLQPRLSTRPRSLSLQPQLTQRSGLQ
Description: Specific binding to human platelet membranes (3H-SQ29548 competition). To be noted: 25° C., Cheng and Prusoff. How it is done:
The experiments take place at a temperature of 25° C. in a final reaction volume of 0.2 ml in the presence of 0.1 mg of platelet membranes, prepared from washed, ground and centrifuged human platelets. Determination of the activity of the products of the invention is made by competition experiments, in which increasing concentrations of product are placed in the presence of a fixed concentration of ^3 H-SQ29548. This protocol makes it possible to produce inhibition curves for each antagonist studied. The 50% inhibitory concentration is determined by non-linear regression by the "Simplex" method described by M. S. Caceci et al., (Byte, 340-362, May 1984) calculated according to the mass action law model of C. Michaelis et al. (Biochem. Zeitschrift, 49, 333-369, 1913). The inhibition constant is then determined using the formula of Cheng and Prusoff (Biochem. Pharmacol., 22, 3099-3108, 1973).

Test [5] deals with guinea pig carotid artery. Description: Experimental thrombosis in guinea pig carotid artery. Format: in vivo. To be noted: i.v. injection of 100 μg/kg, n=3; 10±2 CFV/20 min before the treatment; control 9±1 then 8±1. How it is done: The technique recently described by Roux et al., Thrombosis and Haemostasis, 71, 252-256 (1994), was used in order to measure the anti-thrombotic effect of our products. Male guinea pigs (390 to 420 g) were anesthetized with ketamine hydrochloride (90 mg/kg i.m.) and xylazine (12 mg/kg i.m.). A catheter is introduced into the left jugular vein in order to allow the i.v. injection of the substances. The right carotid artery is prepared and a Doppler probe (20 MHz) is installed, which allows the blood flow to be measured. At a distance of two mm from the Doppler probe a subendothelial lesion is produced using a clamp ("pinching"). After introduction of this lesion, the blood flow decreases and stops altogether (between 1 and 2 min). When the flow is at zero, the artery is touched, which removes the occlusive thrombus and restores the flow (see Roux et al., 1994). This thrombotic process is repeated and the cyclic decreases in the flow (CFV=cyclic flow variations) are expressed as a number per 20 min. In control carotid arteries (n=4), the CFVs are counted over 2 periods of 20 min: during the first period, 9±1 CFV/20 min are counted; during the second period, 8±1 CFV/20 min are counted. In a group of animals (n=3) treated with the compound of Example 1, 10±2 CFV/20 min are counted before the treatment and 0.3±0.3 CFV/20 min are counted alter an i.v. injection of 100 μg/kg.

Where a name gives a salt, the structure may show the parent alone.

Regarding `O=C(O)CCn1c2c(c3ccccc31)C[C@H](NS(=O)(=O)c1ccc(F)cc1)CC2` [BAY U3405, reference compound], in test [1] (100 μg/kg per os), the “duration of total inhibition of aggregation ex vivo” value came out at 6 h. Besides, the concentration for half-maximal inhibition (IC50) (as a rule, the midpoint of a concentration-inhibition curve) worked out at 1100 nM in test [2], 180 nM in test [3] and 110 nM in test [4]. In addition, the Ki (commonly a dissociation constant, usually derived from enzyme kinetics or from competition with a known ligand) at platelet TXA2 receptors stood at 3.61 nM.
Take `Cc1ccc2c(c1CCC(=O)O)CCC(NS(=O)(=O)c1ccc(Cl)cc1)C2` (stereo not shown) [Example 1, 3-{6-[(4-Chlorophenylsulfonyl)amino]-2-methyl-5,6,7,8-tetrahydronaphth-1-yl}propionic acid, sodium salt]: the “duration of complete inhibition of U46619 platelet aggregation ex vivo” value in test [1] (10 μg/kg per os) is recorded as “at least 3 days”; in test [1] (10 to 3000 μg/kg, orally), “at least 3 days”. Also, the “duration of inhibition of U46619 platelet aggregation ex vivo” value in test [1] (100 μg/kg per os) is “at least 8 days”. Besides, the “inhibition of U46619 platelet aggregation ex vivo (words, compared with 100 μg/kg per os, at least 8 days)” value in test [1] (3 mg/kg per os) is listed as “same result”. Besides, the “duration of complete inhibition of U46619 platelet aggregation ex vivo, highest dose” value in test [1] (highest dose of 10 to 3000 μg/kg, orally) is reported as “up to 11 days”. The results for the IC50 in test [2], in test [3] and in test [4] were 240 nM, 84 nM and 28 nM, respectively. Moreover, in test [5], the “cyclic flow variations (CFV) after treatment” value amounted to 0.3±0.3 CFV/20 min. At platelet TXA2 receptors, the Ki was found to be 0.96 nM.
Regarding `Cc1ccc2c(c1CCC(=O)O)CCC(NS(=O)(=O)c1ccc(F)cc1)C2` (stereo not shown) [Example 3, 3-{6-[(4-Fluorophenylsulfonyl)amino]-2-methyl-5,6,7,8-tetrahydronaphth-1-yl}propionic acid, sodium salt], the IC50 in test [2] is 270 nM; in test [4], 10 nM.
As to `Cc1ccc2c(c1CCC(=O)O)CCC(NS(=O)(=O)c1cccc3ccccc13)C2` (stereo not shown) [Example 8, 3-[6-(1 -Naphthylsulfonylamino)-2-methyl-5,6,7,8-tetrahydronaphth-1-yl]propionic acid], the IC50 in test [4] was 150 nM.
As to `Cc1ccc(S(=O)(=O)NC2CCc3c(CCC(=O)O)cccc3C2)cc1` (stereo not shown) [Example 9, 3-[6-(4-Tolylsulfonylamino)-5,6,7,8-tetrahydronaphth-1-yl]propionic acid], the concentration for half-maximal inhibition (IC50) in test [2] was determined as 320 nM; in test [4], 15 nM.
For `Cc1cc(CCC(=O)O)c2c(c1)CC(NS(=O)(=O)c1ccc(F)cc1)CC2` (stereo not shown) [Example 11, 3-{6-[(4-Fluorophenylsulfonyl)amino]-3-methyl-5,6,7,8-tetrahydronaphth-1-yl}propionic acid], in that order: 670 nM and 56 nM.
The like results for `O=C(O)CCc1cccc2c1OCC(NS(=O)(=O)c1ccc(Cl)cc1)C2` (stereo not shown) [Example 16, 3-[3-(4-Chlorophenylsulfonyl)amino-8-chromanyl]propionic acid] were, in that order, 250 nM and 20 nM.
Take `O=C(O)CCc1cccc2c1OCC(NS(=O)(=O)c1ccc(F)cc1)C2` (stereo not shown) [Example 17, 3-[3-(4-Fluorophenylsulfonyl)aminochroman-8-yl]propionic acid]: the IC50 in test [2] worked out at 1100 nM.
